Experimental data from patent US20170216401A1, “COMBINATION FOR USE IN A METHOD OF TREATING CANCER” (priority 2014, published 2017).

Tests used:
[1] = system: TGF-beta signal transduction; settings: p-SMAD2 western blot (Gaspar et al., 2007); cited from earlier work
[2] = system: human glioma cells HTZ-349 and A-172; assay: cell-mediated tumor cytotoxicity assay, calcein release (CARE-LASS); type: cell-based; settings: PBMC and target cells preincubated 6 days with SD-208, IL-2 and GM-CSF; effector/target 1:100, 1:10, 1:1; 4 hours; FIG. 2
Experimental: Establishment and culture of primary tumor cell cultures were performed as previously described (Jachimczak et al., 1993). Briefly, tumor specimens were cultivated in Dulbecco's minimum essential medium (DMEM) containing 10% FCS, 1% BME vitamin solution, and 1% MEM nonessential amino acids. HTZ-349 was established as primary cell culture from a patient suffering from glioblastoma multiforme (GBM, Grade IV). A-172 cells were obtained from ATCC (GBM). Peripheral blood mononuclear cells (PBMC) were isolated from venous blood of two healthy donors by standard Ficoll-Hypaque gradient centrifugation (Jachimczak et al., 1993).
PBMC were activated with IL-2 (Proleukin S) and GM-CSF. Immune cell cytotoxicity against the target tumor cells was determined in a calcein-release assay (Lichtenfels et al., 1994) by adding pre-activated PBMC to glioma target cells at an effector/target ratio of 1:100, 1:10 and 1:1. After 4 hours, fluorescence of supernatants was analyzed (Fluoroscan, Germany) and calculated as described (Lichtenfels et al., 1994).

Compound: Fc1ccc(Cl)cc1-c1nc(Nc2ccncc2)c2nccnc2n1 [SD-208]
- inhibition of TGF-beta signal transduction [1]: inhibits TGF-beta signal transduction in a dose-dependent fashion
- allogenous cell cytotoxicity against glioma target cells [2]: enhanced
